From ChEMBL document CHEMBL1201862, “PubChem BioAssay data set” (2004)
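1) Cells in 96-well plates. 2) Compound, 48 h, 5 concentrations. 3) Linear interpolation between surrounding doses. 4) Unreached endpoint = highest concentration. Abbreviation: GI50, concentration required for 50% inhibition of growth.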 Calls of active or inactive are those of the source. Cut-off read from the data, not from the text of the source: active = GI50 up to about 1.1 µM and inactive = higher.

Assays:
Experiment in all cases: DTP human tumour cell line panel, 48 h
HT-29 = tested on: HT-29
UACC-62 = tested on: UACC-62
SW-620 = tested on: SW-620
ACHN = tested on: ACHN
SR = tested on: SR
CAKI-1 = tested on: CAKI-1
LOX IMVI = tested on: LOX IMVI
786-0 = tested on: 786-0
A498 = tested on: A498
HOP-92 = tested on: HOP-92
CCRF-CEM = tested on: CCRF-CEM
SF-539 = tested on: SF-539
OVCAR-4 = tested on: OVCAR-4
SF-295 = tested on: SF-295
MOLT-4 = tested on: MOLT-4
SNB-19 = tested on: SNB-19

Structure (SMILES) | GI50 (HT-29) | GI50 (UACC-62) | GI50 (SW-620) | GI50 (ACHN) | GI50 (SR) | GI50 (CAKI-1) | GI50 (LOX IMVI) | GI50 (786-0) | GI50 (A498) | GI50 (HOP-92) | GI50 (CCRF-CEM) | GI50 (SF-539) | GI50 (OVCAR-4) | GI50 (SF-295) | GI50 (MOLT-4) | GI50 (SNB-19)
Nc1nc2ncn(CC(O)COC(=O)c3ccccc3)c2c(=O)[nH]1 (stereo unspecified) | > 100 µM (inactive) | > 100 µM (inactive) | > 100 µM (inactive) | > 100 µM (inactive) | > 100 µM (inactive) | > 100 µM (inactive) | > 100 µM (inactive) | > 100 µM (inactive) | > 100 µM (inactive) | > 100 µM (inactive) | > 100 µM (inactive) | > 100 µM (inactive) | > 100 µM (inactive) | > 100 µM (inactive) | – | –
Cc1ccc(C)c(N2C(=O)C(=O)C(c3nc4ccccc4o3)C(=O)C2=O)c1 | 49.5 µM (inactive) | 43.9 µM (inactive) | 46.3 µM (inactive) | > 100 µM (inactive) | 28.8 µM (inactive) | > 100 µM (inactive) | – | > 100 µM (inactive) | > 100 µM (inactive) | 92 µM (inactive) | 17 µM (inactive) | > 100 µM (inactive) | 37.6 µM (inactive) | > 100 µM (inactive) | 27.2 µM (inactive) | > 100 µM (inactive)
O=Cc1cc(O)c(O)c(O)c1-c1c(C=O)cc(O)c(O)c1O | > 100 µM (inactive) | > 100 µM (inactive) | > 100 µM (inactive) | > 100 µM (inactive) | 82.8 µM (inactive) | > 100 µM (inactive) | > 100 µM (inactive) | > 100 µM (inactive) | > 100 µM (inactive) | – | 85.7 µM (inactive) | > 100 µM (inactive) | > 100 µM (inactive) | > 100 µM (inactive) | > 100 µM (inactive) | > 100 µM (inactive)
COC(=O)c1cc2c3ccccc3n(C(C)=O)c2cn1 | > 100 µM (inactive) | 76.9 µM (inactive) | > 100 µM (inactive) | 53.8 µM (inactive) | 45.6 µM (inactive) | 23.2 µM (inactive) | 63.4 µM (inactive) | > 100 µM (inactive) | – | 49 µM (inactive) | 38.8 µM (inactive) | > 100 µM (inactive) | 60 µM (inactive) | > 100 µM (inactive) | 41.6 µM (inactive) | > 100 µM (inactive)
COC(=O)CCC1CCc2c(OC)ccc(O)c2C1=O (stereo unspecified) | > 100 µM (inactive) | > 100 µM (inactive) | > 100 µM (inactive) | > 100 µM (inactive) | > 100 µM (inactive) | – | > 100 µM (inactive) | > 100 µM (inactive) | > 100 µM (inactive) | – | > 100 µM (inactive) | > 100 µM (inactive) | > 100 µM (inactive) | > 100 µM (inactive) | > 100 µM (inactive) | > 100 µM (inactive)
COc1cccc(NC(=O)C(C)(C)C)c1SSc1c(NC(=O)C(C)(C)C)cccc1OC | 27.3 µM (inactive) | 19.3 µM (inactive) | 18.2 µM (inactive) | 33.5 µM (inactive) | 19.2 µM (inactive) | > 42.5 µM (inactive) | 15.4 µM (inactive) | 21.6 µM (inactive) | > 100 µM (inactive) | 36.1 µM (inactive) | 17.1 µM (inactive) | 20.8 µM (inactive) | 22.8 µM (inactive) | 36.9 µM (inactive) | 17.7 µM (inactive) | 59 µM (inactive)
Cc1cccc(C2SCc3nc4ccccc4n32)c1 (stereo unspecified) | 27.9 µM (inactive) | 27.8 µM (inactive) | 39.2 µM (inactive) | 24.3 µM (inactive) | 17.1 µM (inactive) | 31 µM (inactive) | 28.6 µM (inactive) | 25.1 µM (inactive) | – | 14.7 µM (inactive) | 31.8 µM (inactive) | 33.8 µM (inactive) | 28.2 µM (inactive) | 30.8 µM (inactive) | 25.9 µM (inactive) | –
CC1=CC(=O)CCC2(C)C1CC[C@@H]2OC=O (stereo partly specified) | > 100 µM (inactive) | > 100 µM (inactive) | > 100 µM (inactive) | > 100 µM (inactive) | > 100 µM (inactive) | > 100 µM (inactive) | > 100 µM (inactive) | > 100 µM (inactive) | – | > 100 µM (inactive) | > 100 µM (inactive) | > 100 µM (inactive) | > 100 µM (inactive) | > 100 µM (inactive) | > 100 µM (inactive) | > 100 µM (inactive)
CC1OC(OC2C(OC(=O)[C@]34CCC(C)(C)CC3C3=CCC5[C@@]6(C)C[C@H](O)[C@H](OC7OC(CO)C(O)C(O)C7N)[C@@](C)(C(=O)O)C6CC[C@@]5(C)C3(C)CC4)OCC(O)C2O)C(O)C(O)C1OC1OCC(O)C(O)C1O (stereo partly specified) | > 100 µM (inactive) | > 100 µM (inactive) | > 100 µM (inactive) | > 100 µM (inactive) | – | > 100 µM (inactive) | > 100 µM (inactive) | > 100 µM (inactive) | > 100 µM (inactive) | > 100 µM (inactive) | > 100 µM (inactive) | > 100 µM (inactive) | – | > 100 µM (inactive) | > 100 µM (inactive) | > 100 µM (inactive)
COc1ccc([C@H]2[C@@H]3CCc4ccccc4C3=NN2C(N)=S)cc1OC | 40 µM (inactive) | 34 µM (inactive) | 58.2 µM (inactive) | 32.7 µM (inactive) | 27 µM (inactive) | – | 32.6 µM (inactive) | 54.2 µM (inactive) | > 100 µM (inactive) | 35.4 µM (inactive) | 32.4 µM (inactive) | > 100 µM (inactive) | 41.4 µM (inactive) | – | 31.1 µM (inactive) | 77.3 µM (inactive)
COc1ccc(-c2cc3ccccc3[nH]c2=O)cc1OC | > 100 µM (inactive) | > 100 µM (inactive) | > 100 µM (inactive) | > 100 µM (inactive) | > 100 µM (inactive) | > 100 µM (inactive) | > 100 µM (inactive) | > 100 µM (inactive) | – | – | > 100 µM (inactive) | > 100 µM (inactive) | > 100 µM (inactive) | > 100 µM (inactive) | > 100 µM (inactive) | > 100 µM (inactive)
CC1=C2C(=O)C3[C@@H](CCC4=CC(=O)CC[C@@]43C)C2CC[C@]12O[C@@H]1C[C@H](C)CN[C@H]1[C@H]2C (stereo partly specified) | 39.8 µM (inactive) | 23.4 µM (inactive) | 57.9 µM (inactive) | 31.4 µM (inactive) | 17.1 µM (inactive) | > 100 µM (inactive) | 29.6 µM (inactive) | 43.4 µM (inactive) | 32.3 µM (inactive) | 48.2 µM (inactive) | 15.9 µM (inactive) | 45.4 µM (inactive) | > 100 µM (inactive) | 32.8 µM (inactive) | 19.9 µM (inactive) | 44.4 µM (inactive)
CC(C)C(NCc1c2ccccc2[n+](C)c2ccccc12)C(=O)O (stereo unspecified) | 2.89 µM (inactive) | 3.56 µM (inactive) | 3.7 µM (inactive) | 3.53 µM (inactive) | 0.748 µM (active) | 3.48 µM (inactive) | 5.42 µM (inactive) | 4.66 µM (inactive) | 7.26 µM (inactive) | 3.57 µM (inactive) | 0.627 µM (active) | 5.94 µM (inactive) | 7.62 µM (inactive) | 6.76 µM (inactive) | 1.14 µM (inactive) | 15.5 µM (inactive)
COc1cc2c(cc1OC)[C@@H](Nc1ccc(F)cc1)C1COC(=O)[C@@H]1C2c1cc(OC)c(O)c(OC)c1 (stereo partly specified) | 3.66 µM (inactive) | 0.589 µM (active) | 0.512 µM (active) | 0.12 µM (active) | 0.0421 µM (active) | 0.384 µM (active) | 0.671 µM (active) | 0.573 µM (active) | 1.14 µM (inactive) | – | 0.14 µM (active) | 0.594 µM (active) | 16.7 µM (inactive) | 0.267 µM (active) | 0.0147 µM (active) | 1 µM (active)
CCC1(Cl)C(=O)NC(=O)N(C2CC(O)C(CO)O2)C1N=[N+]=[N-] (stereo unspecified) | > 100 µM (inactive) | > 100 µM (inactive) | > 100 µM (inactive) | > 100 µM (inactive) | – | > 100 µM (inactive) | > 100 µM (inactive) | > 100 µM (inactive) | > 100 µM (inactive) | > 100 µM (inactive) | > 100 µM (inactive) | > 100 µM (inactive) | > 100 µM (inactive) | > 100 µM (inactive) | > 100 µM (inactive) | > 100 µM (inactive)
CC/C(CC(=O)CCC(=O)Nc1c(C)cccc1C)=N\NC(=O)NN | > 100 µM (inactive) | > 100 µM (inactive) | > 100 µM (inactive) | > 100 µM (inactive) | > 100 µM (inactive) | – | – | > 100 µM (inactive) | > 100 µM (inactive) | > 100 µM (inactive) | > 100 µM (inactive) | > 100 µM (inactive) | > 100 µM (inactive) | > 100 µM (inactive) | > 100 µM (inactive) | > 100 µM (inactive)
CC1=CCC2(C#N)CCC1C2=O (stereo unspecified) | > 100 µM (inactive) | > 100 µM (inactive) | > 100 µM (inactive) | > 100 µM (inactive) | > 100 µM (inactive) | > 100 µM (inactive) | > 100 µM (inactive) | > 100 µM (inactive) | > 100 µM (inactive) | – | > 100 µM (inactive) | > 100 µM (inactive) | > 100 µM (inactive) | > 100 µM (inactive) | > 100 µM (inactive) | > 100 µM (inactive)
CS/C(c1ccccc1)=[N+](\[O-])Cc1ccccc1 | 50.7 µM (inactive) | > 100 µM (inactive) | – | > 100 µM (inactive) | 20 µM (inactive) | > 100 µM (inactive) | 16.4 µM (inactive) | > 100 µM (inactive) | > 100 µM (inactive) | > 100 µM (inactive) | 39.4 µM (inactive) | > 100 µM (inactive) | > 100 µM (inactive) | > 100 µM (inactive) | > 100 µM (inactive) | > 100 µM (inactive)
